Data set [1] in a line: Cytotoxicity Determination. The settings on record: human, HEp-2 cells, without addition of virus, CCK-8 readout, bins (Table 4: greater than 100 μM; Table 5: equal to or less than 100 μM and greater than 10 μM), read-out: 50% cytotoxicity concentration (CC50). In kind it is cell-based. A digest of the protocol:
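Uninfected cells were exposed to compounds in duplicate over a 7-point ½ dilution series starting at 100 μM final, for 5 days at 37 °C, 5% CO2. CCK-8 was then added for 3-4 h, and CC50 was calculated from optical density.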

For data set [2], the system named is Respiratory Syncytial Virus (RSV) long strain (ATCC#VR-26). Put plainly: RSV Antiviral Assay (CPE reduction assay). The format is cell-based. The following applies: human respiratory syncytial virus, 120 h; HEp-2 cells infected with RSV long strain, 5 days, CCK-8 readout; bins (Table 2: less than 1 μM; Table 3: equal to or higher than 1 μM and less than 50 μM); read-out: 50% effective concentration (EC50). Put shortly:
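HEp-2 cells infected with 100 TCID50 RSV long strain per well, compounds from 100 μM or 1 μM in 9-point ⅓ dilutions, duplicates, 1% DMSO. After 5 days at 37 °C, viable cells measured by CCK-8 (A450, 630 nm background); EC50 by regression on mean O.D.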

For `CNCCOc1ccc(C(=O)NCC(=O)c2ccc(OC)c(-c3ccc(F)c(Cl)c3)n2)cc1OC` [Compound 1313], the CC50 at 5 days in data set [1] is 10 to 100 µM. Moreover, in data set [2], the EC50 lay within 1 to 50 µM.
With `COc1cc(-c2nc(C(=O)CNC(=O)c3ccc(OCCO)c(OC)c3)ccc2OC)ccc1F` [Compound 1329], in data set [1], the CC50 at 5 days was more than 100 µM. For the same compound, in data set [2], the EC50 was less than 1 µM.
As to `COc1ccc(C(=O)NCC(=O)N/N=C(\CCO)c2csc3c(F)cccc23)cc1OC` [Compound 400-13], in data set [1], the CC50 at 5 days is more than 100 µM. Also, in data set [2], the EC50 is 1 to 50 µM.
On to `COc1cc(C(=O)NCC(=O)c2ccc(OCC3CC3)c(-c3csc4c(F)cccc34)n2)ccc1OCCO` [Compound 2617], for which the CC50 at 5 days in data set [1] was more than 100 µM. Besides, the EC50 in data set [2] was less than 1 µM.
Regarding `COc1cc(C(=O)NCC(=O)c2ccc(OC)c(-c3ccc(F)c(C)c3)n2)ccc1OCCO` [Compound 1325], the CC50 at 5 days in data set [1] was more than 100 µM. In data set [2], the EC50 is less than 1 µM.
In the case of `CCc1cc(C(=O)CNC(=O)c2ccc(OCCO)c(OC)c2)nc(-c2csc3c(F)cccc23)c1` [Compound 1250], the CC50 at 5 days in data set [1] was more than 100 µM. Besides, the EC50 in data set [2] was less than 1 µM.
In the same order, the values of `COc1cc(C(=O)NCC(=O)c2ccc(OC)c(-c3ccc(F)c(Cl)c3)n2)ccc1-c1cnn(C)c1` [Compound 2651] are 10 to 100 µM and 1 to 50 µM.
In the same order, the values of `COc1ccc(C(=O)NCC(=O)c2ccc(N(C)C)c(-c3csc4c(F)cccc34)n2)cc1OC` [Compound 2101] are more than 100 µM and 1 to 50 µM.
As for `COc1cc(C(=O)NCC(=O)c2ccc(OC)c(-c3c[nH]c4c(F)cccc34)n2)ccc1OCCO` [Compound 1342], the CC50 at 5 days in data set [1] is more than 100 µM. In addition, the EC50 in data set [2] is less than 1 µM.
For `COc1ccc(C(=O)NCC(=O)c2ccc(OC)c(-c3ccccc3F)n2)cc1OC` [Compound 1528], the CC50 at 5 days in data set [1] is more than 100 µM. Further, the EC50 in data set [2] is 1 to 50 µM.
As for `COc1ccc(C(=O)NCC(=O)c2ccc(OC)c(-c3c(C)sc4cccnc34)n2)cc1OC` [Compound 1502], the CC50 at 5 days in data set [1] is more than 100 µM. For the same compound, the EC50 in data set [2] is 1 to 50 µM.
In the same order, the values of `COc1ccc(C(=O)NCC(=O)N/N=C(/CC2CC2)c2csc3ccccc23)cc1OC` [Compound 400-5] are more than 100 µM and 1 to 50 µM.
In the case of `CCN(CC)c1cccc(C(=O)NCC(=O)N/N=C(\C)c2csc3ccccc23)c1` [Compound 503], the CC50 at 5 days in data set [1] is more than 100 µM. For the same compound, the EC50 in data set [2] lay in the range of 1 to 50 µM.
The matching figures for `COc1ccc(C(=O)NCC(=O)c2ccc(OC)c(-c3ccc4cnn(C)c4c3)n2)cc1OC` [Compound 1503]: 10 to 100 µM and 1 to 50 µM.
For the compound `COc1cc(C(=O)CNC(=O)c2ccc(OCCCO)c(OC)c2)nc(-c2csc3c(F)cccc23)c1` [Compound 1216], the CC50 at 5 days in data set [1] is 10 to 100 µM. In data set [2], the EC50 was less than 1 µM.
For the compound `COc1cc(C(=O)NCC(=O)c2ccc(OC)c(-c3ccc(C(F)(F)F)cc3)n2)ccc1OCCO` [Compound 1605], the CC50 at 5 days in data set [1] lay within 10 to 100 µM. Moreover, in data set [2], the EC50 was less than 1 µM.
The matching figures for `COc1ccc(C(=O)NCC(=O)c2ccc(OC)c(-c3ccc(F)c(Cl)c3)n2)cc1OC` [Compound 1529]: more than 100 µM and less than 1 µM.
Turning to `COc1ccc(C(=O)NCC(=O)c2cc(C3CC3)cc(-c3csc4c(F)cccc34)n2)cc1OC` [Compound 1249], in data set [1], the CC50 at 5 days was more than 100 µM. The EC50 in data set [2] was in the range of 1 to 50 µM.
The matching figures for `COc1ccc(C(=O)NCC(=O)N/N=C(\C)c2cc3c(F)cccc3s2)cc1OC` [Compound 400-3]: more than 100 µM and 1 to 50 µM.
As for `COc1cc(C(=O)NCC(=O)c2ccc(OC)c(-c3c(Cl)sc4c(F)cccc34)n2)ccc1OCCO` [Compound 2621], in data set [1], the CC50 at 5 days was more than 100 µM. Moreover, in data set [2], the EC50 is less than 1 µM.
As for `COc1ccc(C(=O)NCC(=O)N2CCCN(c3csc4c(F)cccc34)C2=O)cc1OC` [Compound 2800], the CC50 at 5 days in data set [1] lay within 10 to 100 µM. Besides, in data set [2], the EC50 lay within 1 to 50 µM.
As to `COc1cc(C(=O)NCC(=O)c2cccc(-c3csc4c(F)cccc34)n2)ccc1OCCn1ccnc1` [Compound 1246], in data set [1], the CC50 at 5 days was in the range of 10 to 100 µM. For the same compound, the EC50 in data set [2] fell in the range of 1 to 50 µM.
On to `COCC/C(=N\NC(=O)CNC(=O)c1ccc(OC)c(OC)c1)c1csc2c(F)cccc12` [Compound 400-15], for which the CC50 at 5 days in data set [1] was more than 100 µM. Besides, the EC50 in data set [2] was less than 1 µM.
In the same order, the values of `CCCc1cc(C(=O)CNC(=O)c2ccc(OC)c(OC)c2)nc(-c2csc3c(F)cccc23)c1` [Compound 1244] are 10 to 100 µM and less than 1 µM.
In the same order, the values of `COc1cc(C(=O)NCC(=O)N2CCCC(c3csc4c(F)cccc34)=N2)ccc1OCCO` [Compound 1101] are more than 100 µM and less than 1 µM.
Consider `COc1cc(C(=O)NCC(=O)c2ccc(OC)c(-c3ccc(F)c(Cl)c3)n2)ccc1OCc1cnc[nH]1` [Compound 1332], for which the CC50 at 5 days in data set [1] was 10 to 100 µM. For the same compound, the EC50 in data set [2] was less than 1 µM.
The matching figures for `C=CCC/C(=N\NC(=O)CNC(=O)c1ccc(OCC)c(OC)c1)c1csc2ccccc12` [Compound 458A]: 10 to 100 µM and less than 1 µM.
In the same order, the values of `CCCn1nc(-c2csc3c(F)cccc23)nc1C(=O)CNC(=O)c1ccc(OC)c(OC)c1` [Compound 2203] are more than 100 µM and 1 to 50 µM.
As to `COc1cc(C(=O)NCC(=O)c2ccc(OC)c(-c3ccc(Cl)c(Cl)c3)n2)ccc1OCCO` [Compound 1616], the CC50 at 5 days in data set [1] is more than 100 µM. Moreover, the EC50 in data set [2] was less than 1 µM.
As to `COc1cc(C(=O)N[C@@H](CCO)C(=O)c2ccc(OC)c(-c3ccc(F)c(C(F)(F)F)c3)n2)ccc1OCCO` [Compound 1807], in data set [1], the CC50 at 5 days was more than 100 µM. The EC50 in data set [2] is less than 1 µM.
In the same order, the values of `COc1ccc(C(=O)NCC(=O)c2ccc(OC)c(-c3ccc4ncccc4c3)n2)cc1OC` [Compound 1507] are 10 to 100 µM and 1 to 50 µM.
Consider `COc1ccc(C(=O)NC(CCC(=O)O)C(=O)c2ccc(OC)c(-c3csc4c(F)cccc34)n2)cc1OC` (stereo not shown) [Compound 1821], for which the CC50 at 5 days in data set [1] was in the range of 10 to 100 µM. Besides, in data set [2], the EC50 is less than 1 µM.
Take `COc1ccc(C(=O)NCC(=O)c2ccc(OC)c(-c3ccc4[nH]c(C)nc4c3)n2)cc1OC` [Compound 1521]: in data set [1], the CC50 at 5 days was in the range of 10 to 100 µM. For the same compound, the EC50 in data set [2] lay within 1 to 50 µM.
Consider `COc1ccc(C(=O)NCC(=O)c2ccc(OC)c(-c3ccc(C(=O)N4CCCCC4)cc3)n2)cc1OC` [Compound 1518], for which, in data set [1], the CC50 at 5 days was 10 to 100 µM. Moreover, the EC50 in data set [2] was 1 to 50 µM.
The matching figures for `CCCC/C(=N\NC(=O)CNC(=O)c1cc(OC)c(OC)cc1Br)c1csc2ccccc12` [Compound 245]: 10 to 100 µM and 1 to 50 µM.
In the same order, the values of `COc1ccc(C(=O)NCC(=O)N/N=C(\C)c2csc3ncccc23)cc1OC` [Compound 400-10] are more than 100 µM and 1 to 50 µM.
The matching figures for `COc1cc(Br)c(C(=O)NCC(=O)N/N=C(\C)c2csc3ccccc23)cc1OC` [Compound 479]: 10 to 100 µM and 1 to 50 µM.
As to `COc1ccc(C(=O)NCC(=O)N/N=C/c2csc3cc(F)ccc23)cc1OC` [Compound 400-17], the CC50 at 5 days in data set [1] lay within 10 to 100 µM. Also, the EC50 in data set [2] lay in the range of 1 to 50 µM.
In the same order, the values of `COc1ccc(C(=O)NCC(=O)NN=C(c2ccccn2)c2ccccn2)cc1OC` [Compound 441] are more than 100 µM and 1 to 50 µM.
In the same order, the values of `COc1ccc(C(=O)NCC(=O)c2ccc(OC)c(-c3cncnc3)n2)cc1OC` [Compound 1520] are more than 100 µM and 1 to 50 µM.
The matching figures for `COc1cc(C(=O)NCC(=O)N/N=C(\C)c2csc3ccccc23)ccc1OC(C)C` [Compound 475]: more than 100 µM and less than 1 µM.
As for `CCSc1ccc(C(=O)NCC(=O)N/N=C/c2csc3ccccc23)cc1` [Compound 238], the CC50 at 5 days in data set [1] fell in the range of 10 to 100 µM. For the same compound, the EC50 in data set [2] was less than 1 µM.
In the same order, the values of `CCOc1ccc(C(=O)NCC(=O)c2ccc(OC)c(-c3ccc(F)c(Cl)c3)n2)cc1OC` [Compound 2641] are more than 100 µM and less than 1 µM.
In the case of `COc1cc(C(=O)N[C@@H](CCCCN)C(=O)c2ccc(OC)c(-c3csc4c(F)cccc34)n2)ccc1OCCO` [Compound 1835], the CC50 at 5 days in data set [1] was 10 to 100 µM. In addition, the EC50 in data set [2] is less than 1 µM.
The matching figures for `COc1cc(C(=O)NCC(=O)c2ccc(OC)c(-c3csc4ccncc34)n2)ccc1OCCO` [Compound 1621]: more than 100 µM and 1 to 50 µM.
`COc1cc(C(=O)NC(C)C(=O)c2ccc(OC)c(-c3csc4c(F)cccc34)n2)ccc1OCCO` (stereo not shown) [Compound 1808]: in data set [1], the CC50 at 5 days is 10 to 100 µM. Moreover, the EC50 in data set [2] is less than 1 µM.
The matching figures for `COc1cc(C(=O)NCC(=O)c2ccc(OC)c(-c3ccc(F)c(Cl)c3)n2)ccc1OCCF` [Compound 2648]: more than 100 µM and less than 1 µM.
On to `COc1ccc(C(=O)NCC(=O)c2ccnc(-c3csc4c(F)cccc34)n2)cc1OC` [Compound 840], for which the CC50 at 5 days in data set [1] is more than 100 µM. The EC50 in data set [2] was 1 to 50 µM.
On to `COc1ccc(C(=O)NCC(=O)N/N=C(\CCO)c2csc3ccccc23)cc1OC` [Compound 492], for which, in data set [1], the CC50 at 5 days was more than 100 µM. Also, the EC50 in data set [2] is less than 1 µM.
`COc1cc(C(=O)NCC(=O)c2ccc(OC)c(-c3ccc(F)c(CF)c3)n2)ccc1OCCO` [Compound 1326]: in data set [1], the CC50 at 5 days is more than 100 µM. Also, the EC50 in data set [2] is less than 1 µM.

The values are drawn from patent US9724351B2, “Compounds for the treatment of paramoxyvirus viral infections” (priority 2012, dated 2017).
